Results reported in article PMC7217877, “N-AS-triggered SPMs are direct regulators of microglia in a model of Alzheimer’s disease” (Nature Communications, 2020).
“And” between values parts separate entries of the source, which are not always exact repeats. Equal entries are not always repeated.

System: APP/PS1 mice
Assay: N-AS level in microglia and neuron isolated from treated mice (LC-MS/MS, Fig 4b)
Type: in vivo, mouse
Settings: N-AS 30 mg kg^-1 daily s.c. 8 weeks, individual values
Method: Reactions were quenched by adding equal volume of cold methanol. A 100 μl aliquot of the reaction mixture was mixed with 30 μl of distilled water containing 5 ng ml^−1 of furosemide (internal standard) for 1 min and vigorously mixed with […] of ethyl acetate for 20 min. After centrifugation at 16,000×g for 10 min, the mixtures were kept for 2 h for freezing aqueous phase. The upper ethyl acetate layer was transferred to a clean tube and evaporated to dryness under a gentle stream of nitrogen. Then, the dried extract was reconstituted in 100 µl of mobile phase and 10 µl aliquot of the solution was injected into an Agilent 6470 Triple Quad LC–MS/MS system (Agilent, Wilmington, DE) coupled with an Agilent 1260 HPLC system. […] Quantification was carried out using multiple reaction monitoring (MRM) at m/z 340.3→263.3 for N-AS and m/z 328.9→284.8 for furosemide (internal standard) in negative ionization mode and collision energy of 20 eV. […]
Adult neurons and microglia were isolated from the mice brain as previously described. […] The purity of the fractionated neurons and microglia were acutely confirmed by neuronal (NeuN, mouse, 1:200, Millipore, MAB377) and microglial (Iba1, rabbit, 1:1000, Wako, 019-19941) markers and the isolated neurons and microglia were acutely analyzed for the acetylation assay and lipid mediators metabololipidomics. […]

SMILES: CCCCCCCCCCCCC/C=C/[C@@H](O)[C@H](CO)NC(C)=O [N-AS, N-((2S,3R,E)-1,3-Dihydroxyoctadec-4-en-2-yl)acetamide]
- N-AS quantification (Fig 4b) (Microglia of APP/PS1 mice): 8.217 and 7.5949 and 7.58 and 7.906 and 7.587 and 7.743
- N-AS quantification (Fig 4b) (Neuron of APP/PS1 mice): 2.188 and 3.557 and 2.872 (3×) and 3.215
